Data on six compounds can be found in US20240391965A1, “STAPLED ANTIMICROBIAL PEPTIDES (STAMPS) AND USES THEREOF” (Lytica Therapeutics, Inc., priority 2021, published 2024).

≈ marks a conversion by molar mass, not a printed value. Starred links: 1 amine or outer side, 2 acyl side, 3 side chain; linkers in the order of their positions; H or OH if unused. Positions of bridges follow the written chain, without caps; N, C: chain ends. Residues, ends and D or L forms follow the SMILES beside them. 2,2'Bipyridine(5,5'-diCH2) = c1cc(-c2ccc(C[*:2])cn2)ncc1C[*:1]; Naphthalene(2,6-diCH2) = c1cc2cc(C[*:2])ccc2cc1C[*:1]

Series [1] relates to Acinetobacter baumannii (A. baumannii). The format is cell-based. The following applies: microbroth dilution, 20-24 hours at 37° C. The procedure: (§1) Antimicrobial Activity Assay: The following microbroth dilution protocol was adapted from CLSI to determine the minimum inhibitory concentration (MIC) of StAMPs. Briefly, Mueller-Hinton broth (MHB) or cation-adjusted Mueller-Hinton broth (MHB II) was prepared and autoclaved. Then, a colony of bacterial cells was picked and grown overnight in broth at 37° C. and then diluted and allowed to grow again for 3-4 hours. Serial dilutions of peptide stocks in water (10 μl) were prepared using clear round-bottom polypropylene 96-well plates. Then 90 μl of bacteria in broth was added to give a final inoculum of 5×10^5 CFU/ml. The plates were then covered with porous tape to reduce evaporation and incubated for 20-24 hours at 37° C. The MIC was the minimum peptide concentration at which no visible bacterial growth was observed.

In series [2] the test system is Escherichia coli (E. coli). The format is cell-based. The following applies: microbroth dilution, 20-24 hours at 37° C. The procedure: as §1
Background: Dilution methods test growth across graded concentrations, often in twofold steps.

Series [3] deals with Klebsiella pneumoniae (K. pneumoniae). The format is cell-based. The following applies: microbroth dilution, 20-24 hours at 37° C. The procedure: as §1
In series [4] the test system is Pseudomonas aeruginosa (P. aeruginosa). The series is classed as cell-based. The following applies: microbroth dilution, 20-24 hours at 37° C. The procedure:
as §1

Series [5] relates to Staphylococcus aureus (S. aureus). The format is cell-based. The following applies: microbroth dilution, 20-24 hours at 37° C. How it is done:
as §1

Series [6] can be described thus: 48 hours cytotoxicity assay (CellTiter-Glo), liver toxicity. The format is cell-based, human. The following applies: 48 hours of incubation, CellTiter-Glo; read-out: Inhibitory Concentration at 50% Cytotoxicity (IC50) Human Liver Cells (HepG2). Summed up:
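Viability from CellTiter-Glo luminescence after StAMP dilution series or vehicle acted on HepG2 cells for 48 h at 37 °C. Cells were grown in EMEM plus 10% FBS and given 4 h to attach before dosing.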

For `CC[C@H](C)[C@H](NC(=O)CN)C(=O)N[C@@H](Cc1ccccc1)C(=O)N[C@@H](CO)C(=O)N[C@@H](CCCCN)C(=O)N[C@H]1CSCc2ccc3cc(ccc3c2)CSC[C@@H](C(=O)N[C@@H](CC(C)C)C(=O)N[C@@H](CC(C)C)C(=O)N[C@H](C(=O)N[C@@H](CO)C(=O)NCC(=O)N[C@@H](CC(C)C)C(=O)N[C@@H](CCCCN)C(=O)NCC(N)=O)[C@@H](C)CC)NC(=O)[C@H](CCCCN)NC(=O)[C@H]([C@@H](C)CC)NC(=O)[C@H](CCCCN)NC(=O)[C@H](CCCCN)NC(=O)CNC(=O)[C@H](C)NC1=O` [compound 64] (H-GIFSKCAGKKIKCLLISGLKG-NH2; linker 6-13 via Naphthalene(2,6-diCH2)), the “Minimum Inhibitory Concentration (MIC) A. baumannii” value in series [1] came to 8 µg/mL. Further, the “Minimum Inhibitory Concentration (MIC) E. coli” value in series [2] was found to be 8 µg/mL. The “Minimum Inhibitory Concentration (MIC) K. pneumoniae” value in series [3] came to 16 µg/mL. Also, the “Minimum Inhibitory Concentration (MIC) P. aeruginosa” value in series [4] is above 64 µg/mL. The “Minimum Inhibitory Concentration (MIC) S. aureus” value in series [5] was above 64 µg/mL. Besides, the IC50 in series [6] is 53 µg/mL (≈ 22.9 µM).

As for `CC[C@H](C)[C@H](NC(=O)CN)C(=O)N[C@@H](Cc1ccccc1)C(=O)N[C@@H](CO)C(=O)N[C@@H](CCCCN)C(=O)N[C@@H](CC(C)C)C(=O)N[C@@H](C)C(=O)NCC(=O)N[C@@H](CCCCN)C(=O)N[C@@H](CCCCN)C(=O)N[C@H](C(=O)N[C@@H](CCCCN)C(=O)N[C@H]1CSCc2ccc(nc2)-c2ccc(cn2)CSC[C@@H](C(=O)NCC(N)=O)NC(=O)[C@H](CC(C)C)NC(=O)CNC(=O)[C@H](CO)NC(=O)[C@H]([C@@H](C)CC)NC(=O)[C@H](CC(C)C)NC(=O)[C@H](CC(C)C)NC1=O)[C@@H](C)CC` [compound 81] (H-GIFSKLAGKKIKCLLISGLCG-NH2; linker 13-20 via 2,2'Bipyridine(5,5'-diCH2); N-terminus assumed), the “Minimum Inhibitory Concentration (MIC) A. baumannii” value in series [1] was found to be 4 µg/mL. In series [2], the “Minimum Inhibitory Concentration (MIC) E. coli” value stood at 4 µg/mL. Besides, the “Minimum Inhibitory Concentration (MIC) K. pneumoniae” value in series [3] worked out at 8 µg/mL. Moreover, the “Minimum Inhibitory Concentration (MIC) P. aeruginosa” value in series [4] is 32 µg/mL. Moreover, the “Minimum Inhibitory Concentration (MIC) S. aureus” value in series [5] is above 64 µg/mL. Also, the IC50 in series [6] came out at 57 µg/mL (≈ 24.5 µM).

In the case of `CC[C@H](C)[C@H](NC(=O)CN)C(=O)N[C@@H](Cc1ccccc1)C(=O)N[C@@H](CO)C(=O)N[C@@H](CCCCN)C(=O)N[C@@H](CC(C)C)C(=O)N[C@@H](C)C(=O)NCC(=O)N[C@H]1CSCc2ccc3cc(ccc3c2)CSC[C@@H](C(=O)N[C@@H](CO)C(=O)NCC(=O)N[C@@H](CC(C)C)C(=O)N[C@@H](CCCCN)C(=O)NCC(N)=O)NC(=O)[C@H](CC(C)C)NC(=O)[C@H](CC(C)C)NC(=O)[C@H](CC(N)=O)NC(=O)[C@H](CCCCN)NC(=O)[C@H]([C@@H](C)CC)NC(=O)[C@H](CCCCN)NC1=O` [compound 69] (H-GIFSKLAGCKIKNLLCSGLKG-NH2; linker 9-16 via Naphthalene(2,6-diCH2); N-terminus assumed), the “Minimum Inhibitory Concentration (MIC) A. baumannii” value in series [1] amounted to 16 µg/mL. Moreover, the “Minimum Inhibitory Concentration (MIC) E. coli” value in series [2] was 16 µg/mL. Also, the “Minimum Inhibitory Concentration (MIC) K. pneumoniae” value in series [3] is 32 µg/mL. Moreover, in series [4], the “Minimum Inhibitory Concentration (MIC) P. aeruginosa” value is above 64 µg/mL. In addition, the “Minimum Inhibitory Concentration (MIC) S. aureus” value in series [5] is above 64 µg/mL. Besides, the IC50 in series [6] came out at 52 µg/mL (≈ 22.6 µM).

For `CC[C@H](C)[C@H](NC(=O)CN)C(=O)N[C@@H](Cc1ccccc1)C(=O)N[C@@H](CO)C(=O)N[C@@H](CCCCN)C(=O)N[C@@H](CC(C)C)C(=O)N[C@@H](C)C(=O)NCC(=O)N[C@@H](CCCCN)C(=O)N[C@@H](CCCCN)C(=O)N[C@H]1CSCc2ccc(nc2)-c2ccc(cn2)CSC[C@@H](C(=O)N[C@@H](CC(C)C)C(=O)N[C@@H](CCCCN)C(=O)NCC(N)=O)NC(=O)[C@H](CO)NC(=O)[C@H]([C@@H](C)CC)NC(=O)[C@H](CC(C)C)NC(=O)[C@H](CC(C)C)NC(=O)[C@H](CC(N)=O)NC(=O)[C@H](CCCCN)NC1=O` [compound 77] (H-GIFSKLAGKKCKNLLISCLKG-NH2; linker 11-18 via 2,2'Bipyridine(5,5'-diCH2); N-terminus assumed), in series [1], the “Minimum Inhibitory Concentration (MIC) A. baumannii” value was determined as 4 µg/mL. The “Minimum Inhibitory Concentration (MIC) E. coli” value in series [2] was found to be 4 µg/mL. In addition, the “Minimum Inhibitory Concentration (MIC) K. pneumoniae” value in series [3] came to 32 µg/mL. Besides, in series [4], the “Minimum Inhibitory Concentration (MIC) P. aeruginosa” value worked out at 32 µg/mL. Further, in series [5], the “Minimum Inhibitory Concentration (MIC) S. aureus” value is above 64 µg/mL. Also, in series [6], the IC50 is 159 µg/mL (≈ 66.2 µM).

In the case of `CC[C@H](C)[C@H](NC(=O)CN)C(=O)N[C@@H](Cc1ccccc1)C(=O)N[C@@H](CO)C(=O)N[C@@H](CCCCN)C(=O)N[C@@H](CC(C)C)C(=O)N[C@@H](C)C(=O)NCC(=O)N[C@@H](CCCCN)C(=O)N[C@@H](CCCCN)C(=O)N[C@H]1CSCc2ccc3cc(ccc3c2)CSC[C@@H](C(=O)N[C@@H](CC(C)C)C(=O)N[C@@H](CCCCN)C(=O)NCC(N)=O)NC(=O)[C@H](CO)NC(=O)[C@H]([C@@H](C)CC)NC(=O)[C@H](CC(C)C)NC(=O)[C@H](CC(C)C)NC(=O)[C@H](CC(N)=O)NC(=O)[C@H](CCCCN)NC1=O` [compound 75] (H-GIFSKLAGKKCKNLLISCLKG-NH2; linker 11-18 via Naphthalene(2,6-diCH2); N-terminus assumed), the “Minimum Inhibitory Concentration (MIC) A. baumannii” value in series [1] was determined as 4 µg/mL. For the same compound, the “Minimum Inhibitory Concentration (MIC) E. coli” value in series [2] worked out at 4 µg/mL. In addition, the “Minimum Inhibitory Concentration (MIC) K. pneumoniae” value in series [3] was 16 µg/mL. Moreover, the “Minimum Inhibitory Concentration (MIC) P. aeruginosa” value in series [4] was 16 µg/mL. In addition, in series [5], the “Minimum Inhibitory Concentration (MIC) S. aureus” value came to 64 µg/mL. Moreover, in series [6], the IC50 amounted to 98 µg/mL (≈ 41.3 µM).

For `CC[C@H](C)[C@H](NC(=O)CN)C(=O)N[C@@H](Cc1ccccc1)C(=O)N[C@@H](CO)C(=O)N[C@@H](CCCCN)C(=O)N[C@@H](CC(C)C)C(=O)N[C@@H](C)C(=O)N[C@H]1CSCc2ccc3cc(ccc3c2)CSC[C@@H](C(=O)N[C@H](C(=O)N[C@@H](CO)C(=O)NCC(=O)N[C@@H](CC(C)C)C(=O)N[C@@H](CCCCN)C(=O)NCC(N)=O)[C@@H](C)CC)NC(=O)[C@H](CC(C)C)NC(=O)[C@H](CC(N)=O)NC(=O)[C@H](CCCCN)NC(=O)[C@H]([C@@H](C)CC)NC(=O)[C@H](CCCCN)NC(=O)[C@H](CCCCN)NC1=O` [compound 67] (H-GIFSKLACKKIKNLCISGLKG-NH2; linker 8-15 via Naphthalene(2,6-diCH2)), the “Minimum Inhibitory Concentration (MIC) A. baumannii” value in series [1] amounted to 4 µg/mL. Moreover, the “Minimum Inhibitory Concentration (MIC) E. coli” value in series [2] was 4 µg/mL. Also, the “Minimum Inhibitory Concentration (MIC) K. pneumoniae” value in series [3] came out at 8 µg/mL. Besides, in series [4], the “Minimum Inhibitory Concentration (MIC) P. aeruginosa” value is 32 µg/mL. In series [5], the “Minimum Inhibitory Concentration (MIC) S. aureus” value is above 64 µg/mL. Moreover, the IC50 in series [6] was found to be 59 µg/mL (≈ 24.9 µM).
